# Measured values as given in patent EP3436445B1, “HISTONE DEMETHYLASE INHIBITORS” (Celgene Quanticel Research, Inc., priority 2016, dated 2017).
# How the values were obtained:
# Jarid1B = target: T1, Jarid1B (Homo sapiens, UniProt Q9UGL1); test: Jarid1B in vitro enzyme inhibition assay (TR-FRET); assay type: biochemical; conditions: Table 5; 0.8 nM Jarid1B, H3K4me3-biotin labeled peptide; read-out: JARID1B IC5
# T1 construct: purchased BPS Bioscience (or custom made by MolecularThroughput) 50121
# T1 sequence (Q9UGL1 2-751): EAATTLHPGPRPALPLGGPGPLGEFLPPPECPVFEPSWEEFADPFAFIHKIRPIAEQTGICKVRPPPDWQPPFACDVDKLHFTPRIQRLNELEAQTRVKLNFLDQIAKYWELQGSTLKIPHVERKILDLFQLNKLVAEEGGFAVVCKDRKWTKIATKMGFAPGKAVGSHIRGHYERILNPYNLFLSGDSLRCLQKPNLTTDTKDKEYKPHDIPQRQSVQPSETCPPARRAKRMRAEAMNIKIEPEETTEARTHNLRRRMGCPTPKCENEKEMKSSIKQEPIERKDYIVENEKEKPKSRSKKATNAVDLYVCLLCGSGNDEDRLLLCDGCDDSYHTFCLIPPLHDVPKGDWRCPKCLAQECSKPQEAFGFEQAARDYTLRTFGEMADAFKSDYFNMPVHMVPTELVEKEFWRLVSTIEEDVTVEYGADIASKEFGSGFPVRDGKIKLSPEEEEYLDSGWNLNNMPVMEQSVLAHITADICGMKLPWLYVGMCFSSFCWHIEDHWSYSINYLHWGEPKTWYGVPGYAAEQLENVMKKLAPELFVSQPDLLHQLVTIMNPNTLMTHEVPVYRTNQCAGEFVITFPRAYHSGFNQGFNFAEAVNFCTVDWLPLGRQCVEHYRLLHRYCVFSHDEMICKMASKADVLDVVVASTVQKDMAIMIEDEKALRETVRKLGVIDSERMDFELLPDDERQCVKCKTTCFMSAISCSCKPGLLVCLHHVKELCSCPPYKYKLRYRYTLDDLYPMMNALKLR
# Excerpt: (§1) This assay determines the ability of a test compound to inhibit Jarid1B, JMJD2C and JMJD3 demethylase activity. Baculovirus expressed Jarid1B (GenBank Accession #NM-006618, AA 2-751) was purchased from BPS Bioscience (Cat #50121) or custom made by MolecularThroughput. Baculovirus expressed JMJD2C (GenBank Accession #BC143571, AA 2-372) was purchased from BPS Bioscience (Cat#50105). Baculovirus expressed JMJD3 (GenBank Accession #NM-001080424, AA1043-end) was purchased from BPS Bioscience (Cat#50115).
# The ability of test compounds to inhibit the activity of Jarid1B was determined in 384-well plate format under the following reaction conditions: 0.8 nM Jarid1B, 300 nM H3K4me3-biotin labeled peptide (Anaspec cat #64357), 2 µM alpha-ketoglutaric acid in assay buffer of 50 mM HEPES, pH7.3, 0.005% Brij35, 0.5 mM TCEP, 0.2 mg/ml BSA, 50 µM sodium L-ascorbate, and 2 µM ammonium iron(II) sulfate. Reaction product was determined quantitatively by TR-FRET after the addition of detection reagent Phycolink Streptavidin-allophycocyanin (Prozyme) and Europium-anti-mono-or di-methylated histone H3 lysine 4 (H3K4me1-2) antibody (PerkinElmer) in the presence of 5 mM EDTA in LANCE detection buffer (PerkinElmer) at a final concentration of 25 nM and 1 nM, respectively.
# (§2) The assay reaction was initiated by the following: 2 µl of the mixture of 900 nM H3K4me3-biotin labeled peptide and 6 µM alpha-ketoglutaric acid with 2 µl of 11-point serial diluted inhibitor in 3% DMSO was added to each well of the plate, followed by the addition of 2 µl of 2.4 nM Jarid1B to initiate the reaction. The reaction mixture was incubated at room temperature for 30 minutes, and terminated by the addition of 6 µl of 5 mM EDTA in LANCE detection buffer containing 50 nM Phycolink Streptavidin-allophycocyanin and 2 nM Europium-anti-H3K4me1-2 antibody. Plates were read by EnVisionMultilabel Reader in TR-FRET mode (excitation at 320 nm, emission at 615 nm and 665 nm) after 1 hour incubation at room temperature. A ratio was calculated (665/615) for each well and fitted to determine inhibition constant (IC50).
# JMJD2C = target: T2, JMJD2C (Homo sapiens, UniProt Q9H3R0); test: JMJD2C in vitro enzyme inhibition assay (TR-FRET); assay type: biochemical; conditions: Table 5; 0.3 nM JMJD2C, H3K9me3-biotin labeled peptide
# T2 construct: purchased BPS Bioscience 50105
# T2 sequence (Q9H3R0 2-372): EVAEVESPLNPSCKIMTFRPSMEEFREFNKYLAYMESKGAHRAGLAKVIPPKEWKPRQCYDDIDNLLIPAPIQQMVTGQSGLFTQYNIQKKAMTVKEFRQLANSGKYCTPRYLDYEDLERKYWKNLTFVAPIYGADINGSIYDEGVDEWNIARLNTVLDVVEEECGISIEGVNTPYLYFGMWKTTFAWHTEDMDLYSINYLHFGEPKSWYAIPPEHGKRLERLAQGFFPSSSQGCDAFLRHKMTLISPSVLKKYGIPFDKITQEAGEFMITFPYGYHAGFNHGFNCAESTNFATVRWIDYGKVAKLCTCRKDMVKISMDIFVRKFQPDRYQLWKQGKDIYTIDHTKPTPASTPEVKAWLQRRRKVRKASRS
# Excerpt: as §1
# The ability of test compounds to inhibit the activity of JMJD2C was determined in 384-well plate format under the following reaction conditions: 0.3 nM JMJD2C, 300 nM H3K9me3-biotin labeled peptide (Anaspec cat #64360), 2 µM alpha-ketoglutaric acid in assay buffer of 50 mM HEPES, pH7.3, 0.005% Brij35, 0.5 mM TCEP, 0.2 mg/ml BSA, 50 µM sodium L-ascorbate, and 2 µM ammonium iron(II) sulfate. Reaction product was determined quantitatively by TR-FRET after the addition of detection reagent Phycolink Streptavidin-allophycocyanin (Prozyme) and Europium-anti-di-methylated histone H3 lysine 9 (H3K9me2) antibody (PerkinElmer) in the presence of 5 mM EDTA in LANCE detection buffer (PerkinElmer) at a final concentration of 50 nM and 1 nM, respectively.
# as §2, with “nM H3K9me3-biotin” for “nM H3K4me3-biotin”, “DMSO were” for “DMSO was”, “of 0.9” for “of 2.4”, “nM JMJD2C” for “nM Jarid1B”, “containing 100” for “containing 50”, “nM Europium-anti-H3K9me2” for “nM Europium-anti-H3K4me1-2”
SMILES,IC50 (Jarid1B),IC50 (JMJD2C)
"Fc1ccc2c(c1)C(n1cnc(-c3cc(-c4nn[nH]c4C(F)(F)F)ccn3)c1)CC2 (stereo not drawn) [Example 85, 2-[1-(6-fluoro-2,3-dihydro-1H-inden-1-yl)-1H-imidazol-4-yl]-4-[5-(trifluoromethyl)-1H-1,2,3-triazol-4-yl]pyridine]",≤ 100 nM,1000 to 10000 nM
"CCc1ccc(CCn2cnc(-c3cc(-c4nn[nH]c4C(F)(F)F)ccn3)c2)cc1 [Example 95, 2-{1-[2-(4-ethylphenyl)ethyl]-1H-imidazol-4-yl}-4-[5-(trifluoromethyl)-1H-1,2,3-triazol-4-yl]pyridine]",100 to 1000 nM,> 10000 nM
"Cc1ccc(CCn2cnc(-c3cc(-c4nn[nH]c4C(F)(F)F)ccn3)c2)cc1 [Example 91, 2-{1-[2-(4-methylphenyl)ethyl]-1H-imidazol-4-yl}-4-[5-(trifluoromethyl)-1H-1,2,3-triazol-4-yl]pyridine]",100 to 1000 nM,> 10000 nM
"Fc1ccc2c(c1)CCCC2Cn1cnc(-c2cc(-c3nn[nH]c3C(F)(F)F)ccn2)c1 (stereo not drawn) [Example 100, 2-{1-[(6-fluoro-1,2,3,4-tetrahydronaphthalen-1-yl)methyl]-1H-imidazol-4-yl}-4-[5-(trifluoromethyl)-1H-1,2,3-triazol-4-yl]pyridine]",≤ 100 nM,> 10000 nM
"Fc1ccccc1Cn1cnc(-c2cc(-c3nn[nH]c3C(F)(F)F)ccn2)c1 [Example 62, 2-{1-[(2-fluoroprtenyl)methyl]-1H-imidazol-4-yl}-4-[5-(trifluoromethyl)-1H-1,2,3-triazol-4-yl]pyridine]",100 to 1000 nM,> 10000 nM
"FC(F)(F)c1[nH]nnc1-c1ccnc(-c2cn(CC3CCOc4ccccc43)cn2)c1 (stereo not drawn) [Example 98, 2-{1-[(3,4-dihydro-2H-1-benzopyran-4-yl)methyl]-1H-imidazol-4-yl}-4-[5-(trifluoromethyl)-1H-1,2,3-triazol-4-yl]pyridine]",≤ 100 nM,> 10000 nM
"Fc1cccc(F)c1Cn1cnc(-c2cc(-c3nn[nH]c3C(F)(F)F)ccn2)c1 [Example 69, 2-{1-[(2,6-difluorophenyl)methyl]-1H-imidazol-4-yl}-4-[5-(trifluoromethyl)-1H-1,2,3-triazol-4-yl]pyridine]",100 to 1000 nM,> 10000 nM
"FC(F)(F)c1[nH]nnc1-c1ccnc(-c2cn(Cc3ccc(Cl)cc3)cn2)c1 [Example 63, 2-{1-[(4-chlorophenyl)methyl]-1H-imidazol-4-yl}-4-[5-(trifluoromethyl)-1H-1,2,3-triazol-4-yl]pyridine]",100 to 1000 nM,> 10000 nM
"FC(F)(F)c1[nH]nnc1-c1ccnc(-c2cn(Cc3ccccc3Cl)cn2)c1 [Example 64, 2-{1-[(2-chlorophenyl)methyl]-1H-imidazol-4-yl}-4-[5-(trifluoromethyl)-1H-1,2,3-triazol-4-yl]pyridine]",100 to 1000 nM,> 10000 nM
"COc1ccc(Cn2cnc(-c3cc(-c4nn[nH]c4C(F)(F)F)ccn3)c2)cc1 [Example 67, 2-{1-[(4-methoxyphenyl)methyl]-1H-imidazol-4-yl}-4-[5-(trifluoromethyl)-1H-1,2,3-triazol-4-yl]pyridine]",100 to 1000 nM,1000 to 10000 nM
"Fc1ccccc1CCn1cnc(-c2cc(-c3nn[nH]c3C(F)(F)F)ccn2)c1 [Example 84, 2-{1-[2-(2-fluorophenyl)ethyl]-1H-imidazol-4-yl}-4-[5-(trifluoromethyl)-1H-1,2,3-triazol-4-yl]pyridine]",≤ 100 nM,> 10000 nM
FC(F)(F)c1[nH]nnc1-c1ccnc(-c2cn(CCc3ccccc3Cl)cn2)c1 [Example 57],≤ 100 nM,> 10000 nM
"COc1cccc2c1CCCC2Cn1cnc(-c2cc(-c3nn[nH]c3C(F)(F)F)ccn2)c1 (stereo not drawn) [Example 104, 2-{1-[(5-methoxy-1,2,3,4-tetrahydronaphthalen-1-yl)methyl]-1H-imidazol-4-yl}-4-[5-(trifluoromethyl)-1H-1,2,3-triazol-4-yl]pyridine]",100 to 1000 nM,> 10000 nM
"CCC(c1ccccc1)n1cnc(-c2cc(-c3nn[nH]c3C(F)(F)F)ccn2)c1 (stereo not drawn) [Example 74, 2-[1-(1-phenylpropyl)-1H-imidazol-4-yl]-4-[5-(trifluoromethyl)-1H-1,2,3-triazol-4-yl]pyridine]",100 to 1000 nM,> 10000 nM
"Fc1ccc(CCn2cnc(-c3cc(-c4nn[nH]c4C(F)(F)F)ccn3)c2)c(F)c1 [Example 86, 2-{1-[2-(2,4-difluorophenyl)ethyl]-1H-imidazol-4-yl}-4-[5-(trifluoromethyl)-1H-1,2,3-triazol-4-yl]pyridine]",≤ 100 nM,> 10000 nM
"COc1ccc2c(c1)C(Cn1cnc(-c3cc(-c4nn[nH]c4C(F)(F)F)ccn3)c1)CCC2 (stereo not drawn) [Example 106, 2-{1-[(7-methoxy-1,2,3,4-tetrahydronaphthalen-1-yl)methyl]-1H-imidazol-4-yl}-4-[5-(trifluoromethyl)-1H-1,2,3-triazol-4-yl]pyridine]",≤ 100 nM,> 10000 nM
"Cc1ccc2c(c1)CCCC2Cn1cnc(-c2cc(-c3nn[nH]c3C(F)(F)F)ccn2)c1 (stereo not drawn) [Example 102, 2-{1-[(6-methyl-1,2,3,4-tetrahydronaphthalen-1-yl)methyl]-1H-imidazol-4-yl}-4-[5-(trifluoromethyl)-1H-1,2,3-triazol-4-yl]pyridine]",100 to 1000 nM,> 10000 nM
"Fc1cccc(CCn2cnc(-c3cc(-c4nn[nH]c4C(F)(F)F)ccn3)c2)c1F [Example 79, 2-{1-[2-(2,3-difluorophenyl)ethyl]-1H-imidazol-4-yl}-4-[5-(trifluoromethyl)-1H-1,2,3-triazol-4-yl]pyridine]",≤ 100 nM,> 10000 nM
